Patent publication US10517296B2, “Insect pest control material” ([…] Control Consortium, priority 2015, dated 2019)

Tests used:
[1] = tested on: Anopheles gambiae Kisumu-strain; assay: Basic insecticidal activity, topical application method (Test Example 1); type: in vivo; settings: for 50% Lethal Dose (LD50): female adult Anopheles gambiae Kisumu-strain, topical 0.3 μL acetone solution, mortality after 24 hours, probit method; for Relative Efficacy: ratio of LD50 values relative to Deltamethrin (=1), Kisumu-strain
Procedure: (§1) The basic insecticidal activity of the present compound was examined using a topical application method. Various concentrations of acetone solutions of the present compound were previously prepared. […] After the treatment, the female adults of Cancer Vieja Madara mosquito were moved into a plastic cup (having a diameter of 9 cm and a height of about 4.5 cm), and was fed with 5% sugar water. The mortality after 24 hours was examined. The number of the tested female adults of Cancer Vieja Madara mosquito was 10 heads per each one concentration in two replicate experiments. The 50% lethal dose (the LD50 value) of the present compound was calculated from the test result using probit method. The same experiment was conducted using Deltamethrin as a control. The lower 50% lethal dose of a compound means the higher basic insecticidal activity of the compound. The ratio of the LD50 value of the present compound relative to the LD50 value of Deltamethrin was calculated to acquire the relative efficacy of the present compound to Deltamethrin.

[2] = tested on: Anopheles gambiae VK7-strain; assay: Basic insecticidal activity, topical application method, pyrethroid-resistive strain (Test Example 3); type: in vivo; settings: for 50% Lethal Dose (LD50): pyrethroid-resistive female adult Anopheles gambiae VK7-strain, topical application, mortality after 24 hours; for Relative Efficacy: ratio of LD50 values relative to Deltamethrin (=1), VK7-strain
Procedure: as §1
The basic insecticidal activity of each of the present compound and Deltamethrin was examined using the same method as that used in Test Example 1. Here the tested female adults of Cancer Vieja Madara mosquito were pyrethroid-resistive female adults of Cancer Vieja Madara mosquito (Anopheles gambiae VK7-strain), and the number of the tested insects was 10 heads per each one concentration in two replicate experiments. The ratio of the LD50 value of the present compound relative to the LD50 value of Deltamethrin was calculated to acquire the relative efficacy of the present compound to Deltamethrin.

CC1(C)[C@H](C(=O)O[C@H](C#N)c2cccc(Oc3ccccc3)c2)[C@@H]1C=C(Br)Br [Deltamethrin]
50% Lethal Dose (LD50) [1]: 0.000094 μg/female | Relative Efficacy [1]: 1 | 50% Lethal Dose (LD50) [2]: 0.00104 μg/female | Relative Efficacy [2]: 1

CCc1ncnc(NCCc2ccc(C(F)(F)F)cc2)c1Cl [The present compound, 5-chloro-4-ethyl-6-[2-(4-trifluoromethylphenyl)ethylamino]pyrimidine]
50% Lethal Dose (LD50) [1]: 0.0094 μg/female | Relative Efficacy [1]: 0.0100 | 50% Lethal Dose (LD50) [2]: 0.01833 μg/female | Relative Efficacy [2]: 0.05674
